US20250213707A1, “COMPOUND FOR INCREASING EFFICACY OF ONCOLYTIC VIRUSES” (ABLEVIA BIOTECH GMBH, priority 2022, published 2025)

Key:
[1] = system: polyclonal antibody ab6982; test: Epitope mapping of polyclonal antibody ab6982 against cyclic peptides of Ad5 fiber and hexon (peptide array); type: binding, rabbits
Excerpt: Polyclonal antibody ab6982 (Abcam) was generated by immunizing rabbits with purified AdV. It reacts with all capsid proteins of Ad5 including hexon, fiber and penton. It was shown that the antibody neutralizes Ad5 infection in a bioassay at 1000 adenovirus 5 particles/ml, a 50% inactivation of the adenovirus can be achieved at a 1/25,000 dilution of the antibody. In order to identify epitopic regions that could contain peptides for ab6982 paratope binding, the antibody was mapped against the sequences of fiber (NCBI Reference Sequence: AP 000226.1) and hexon protein (GenBank: BAG48782.1). […] The binding signal of this antibody to the array yielded several peptides that were aligned and clustered against the sequence of the protein. The peptide clusters were named cluster1-7 (fiber protein) and clusters8-16 (hexon protein) according to their ranked order of cyclic peptide hits (i.e. cluster contains the strongest binders, cluster2 the second strongest etc.). Below are the aligments of the corresponding peptides that bind to polyclonal antibody ab6982.

[2] = system: IgG from human donors (anti-AAV antibodies); test: Screen for anti-AAV antibodies in human sera, 2452 linear 15-amino-acid AAV peptides on microarrays (Table 1); type: binding; design: key to group I: X: the deduplicated aggregate of the respective top 10 peptide hits for each donor was compiled and designated as group I; key to group II: X: the deduplicated aggregate of the respective top 25 peptide hits for each donor was compiled and designated as group II; key to group III: X: the deduplicated aggregate of the respective top 50 peptide hits for each donor was compiled and designated as group III; conditions: human donor IgG binding to linear 15-amino-acid AAV peptides on microarray, fluorescence
Method in brief: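 Protein G-purified IgG from human donor blood incubated with microarrays of 2452 linear 15-mer peptides from 16 AAVs; binding read by fluorescence. Background-subtracted signals ranked per donor, with top 10, 25, 50 and 250 hits pooled and deduplicated into groups I-IV.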

[3] = cyclic peptides of fiber protein (clusters 1-7)
[4] = cyclic peptides of hexon protein (clusters 8-16)

## VMITDEEEIRTTNP (REGION 1..14: note = peptide derived from viral capsid protein) [SEQ ID NO: 1998]
[1]; [3]
  antibody binding signal ranking from the microarray experiment: 052
[2]; membership in deduplicated aggregate of top 10 peptide hits for each donor
  group I: X
[2]; membership in deduplicated aggregate of top 25 peptide hits for each donor
  group II: X
[2]; membership in deduplicated aggregate of top 50 peptide hits for each donor
  group III: X

## 226 (DDNEDEVDEQAEQ) [compound 226]
[1]; [4]
  antibody binding signal ranking from the microarray experiment: 16

## 307 (MLANYNIGYQGFY) [compound 307]
[1]; [4]
  antibody binding signal ranking from the microarray experiment: 123

## 238 (LEEEDDDNED) [compound 238]
[1]; [4]
  antibody binding signal ranking from the microarray experiment: 034

## 261 (WDEAATALEINLE) [compound 261]
[1]; [4]
  antibody binding signal ranking from the microarray experiment: 042

## 176 (SMSFSWDWSGHNY) [compound 176]
[1]; [3]
  antibody binding signal ranking from the microarray experiment: 176

## 253 (EEDDDNEDEV) [compound 253]
[1]; [4]
  antibody binding signal ranking from the microarray experiment: 185

## 212 (TALEINLEEEDDD) [compound 212]
[1]; [4]
  antibody binding signal ranking from the microarray experiment: 05

## 178 (SWDWSGH) [compound 178]
[1]; [3]
  antibody binding signal ranking from the microarray experiment: 193

## 181 (PEYWNFR) [compound 181]
[1]; [3]
  antibody binding signal ranking from the microarray experiment: 031

## 198 (EIFATSSYTF) [compound 198]
[1]; [3]
  antibody binding signal ranking from the microarray experiment: 089

## 244 (NLEEEDD) [compound 244]
[1]; [4]
  antibody binding signal ranking from the microarray experiment: 065

## 222 (INLEEEDDDN) [compound 222]
[1]; [4]
  antibody binding signal ranking from the microarray experiment: 23

## 185 (DPEYWNF) [compound 185]
[1]; [3]
  antibody binding signal ranking from the microarray experiment: 053

## 262 (AATALEINLE) [compound 262]
[1]; [4]
  antibody binding signal ranking from the microarray experiment: 043

## 209 (ATALEINLEEEDD) [compound 209]
[1]; [4]
  antibody binding signal ranking from the microarray experiment: 02

## 221 (ATALEINLEE) [compound 221]
[1]; [4]
  antibody binding signal ranking from the microarray experiment: 19

## 201 (HNYINEIFATSSY) [compound 201]
[1]; [3]
  antibody binding signal ranking from the microarray experiment: 099

## 218 (LEINLEEEDDDNE) [compound 218]
[1]; [4]
  antibody binding signal ranking from the microarray experiment: 13

## 233 (NEDEVDEQAEQQK) [compound 233]
[1]; [4]
  antibody binding signal ranking from the microarray experiment: 25

## 249 (EEDDDNE) [compound 249]
[1]; [4]
  antibody binding signal ranking from the microarray experiment: 108

## 281 (VDIETPDTHISYM) [compound 281]
[1]; [4]
  antibody binding signal ranking from the microarray experiment: 060

## 257 (VDEQAEQQKT) [compound 257]
[1]; [4]
  antibody binding signal ranking from the microarray experiment: 036

## 304 (SYKDRMYSFFRNF) [compound 304]
[1]; [4]
  antibody binding signal ranking from the microarray experiment: 099

## 195 (YINEIFATSSYTF) [compound 195]
[1]; [3]
  antibody binding signal ranking from the microarray experiment: 055

## 220 (EINLEEEDDD) [compound 220]
[1]; [4]
  antibody binding signal ranking from the microarray experiment: 15

## 205 (YINEIFA) [compound 205]
[1]; [3]
  antibody binding signal ranking from the microarray experiment: 168

## 189 (LNNSFLDPEY) [compound 189]
[1]; [3]
  antibody binding signal ranking from the microarray experiment: 114

## 251 (EDEVDEQ) [compound 251]
[1]; [4]
  antibody binding signal ranking from the microarray experiment: 126

## 275 (VLYSEDVDIETPD) [compound 275]
[1]; [4]
  antibody binding signal ranking from the microarray experiment: 052

## 301 (DSIGDRTRYFSMW) [compound 301]
[1]; [4]
  antibody binding signal ranking from the microarray experiment: 100

## 192 (NSFLDPEYWN) [compound 192]
[1]; [3]
  antibody binding signal ranking from the microarray experiment: 187

## 199 (NEIFATSSYTFSY) [compound 199]
[1]; [3]
  antibody binding signal ranking from the microarray experiment: 092

## 289 (DRMYSFF) [compound 289]
[1]; [4]
  antibody binding signal ranking from the microarray experiment: 086

## 200 (ATSSYTFSYI) [compound 200]
[1]; [3]
  antibody binding signal ranking from the microarray experiment: 097

## 264 (EAATALEINL) [compound 264]
[1]; [4]
  antibody binding signal ranking from the microarray experiment: 124

## 234 (DEVDEQAEQQ) [compound 234]
[1]; [4]
  antibody binding signal ranking from the microarray experiment: 26

## 229 (VDEQAEQ) [compound 229]
[1]; [4]
  antibody binding signal ranking from the microarray experiment: 20

## 197 (ATSSYTF) [compound 197]
[1]; [3]
  antibody binding signal ranking from the microarray experiment: 080

## 246 (DDDNEDEVDE) [compound 246]
[1]; [4]
  antibody binding signal ranking from the microarray experiment: 087

## 252 (EEDDDNEDEVDEQ) [compound 252]
[1]; [4]
  antibody binding signal ranking from the microarray experiment: 148

## 298 (TRYFSMW) [compound 298]
[1]; [4]
  antibody binding signal ranking from the microarray experiment: 073

## 206 (YTFSYIA) [compound 206]
[1]; [3]
  antibody binding signal ranking from the microarray experiment: 181

## 311 (QMLANYNIGYQGF) [compound 311]
[1]; [4]
  antibody binding signal ranking from the microarray experiment: 190

## 263 (EWDEAATALEINL) [compound 263]
[1]; [4]
  antibody binding signal ranking from the microarray experiment: 112

## 210 (EAATALEINLEEE) [compound 210]
[1]; [4]
  antibody binding signal ranking from the microarray experiment: 03

## 193 (SSYTFSY) [compound 193]
[1]; [3]
  antibody binding signal ranking from the microarray experiment: 042

## 237 (INLEEED) [compound 237]
[1]; [4]
  antibody binding signal ranking from the microarray experiment: 032

## 235 (EINLEEEDDDNED) [compound 235]
[1]; [4]
  antibody binding signal ranking from the microarray experiment: 028

## 286 (ETPDTHISYM) [compound 286]
[1]; [4]
  antibody binding signal ranking from the microarray experiment: 071

## 231 (EDEVDEQAEQ) [compound 231]
[1]; [4]
  antibody binding signal ranking from the microarray experiment: 22

## 225 (EDDDNEDEVDEQA) [compound 225]
[1]; [4]
  antibody binding signal ranking from the microarray experiment: 12

## 269 (VDIETPDTHI) [compound 269]
[1]; [4]
  antibody binding signal ranking from the microarray experiment: 046

## 179 (FLDPEYWNFR) [compound 179]
[1]; [3]
  antibody binding signal ranking from the microarray experiment: 017

## 266 (LYSEDVDIETPDT) [compound 266]
[1]; [4]
  antibody binding signal ranking from the microarray experiment: 040

## 267 (KVVLYSEDVDIET) [compound 267]
[1]; [4]
  antibody binding signal ranking from the microarray experiment: 044

## 254 (EEEDDDNEDEVDE) [compound 254]
[1]; [4]
  antibody binding signal ranking from the microarray experiment: 188

## 295 (YIPESYKDRMYSF) [compound 295]
[1]; [4]
  antibody binding signal ranking from the microarray experiment: 152

## 294 (KDRMYSF) [compound 294]
[1]; [4]
  antibody binding signal ranking from the microarray experiment: 143

## 282 (PKVVLYSEDVDIE) [compound 282]
[1]; [4]
  antibody binding signal ranking from the microarray experiment: 061

## 173 (SMSFSWD) [compound 173]
[1]; [3]
  antibody binding signal ranking from the microarray experiment: 144

## 306 (ANYNIGYQGF) [compound 306]
[1]; [4]
  antibody binding signal ranking from the microarray experiment: 122

## 303 (DRMYSFFRNF) [compound 303]
[1]; [4]
  antibody binding signal ranking from the microarray experiment: 072

## 248 (EEEDDDNEDE) [compound 248]
[1]; [4]
  antibody binding signal ranking from the microarray experiment: 097

## 239 (INLEEEDDDNEDE) [compound 239]
[1]; [4]
  antibody binding signal ranking from the microarray experiment: 035

## 284 (DIETPDTHISYMP) [compound 284]
[1]; [4]
  antibody binding signal ranking from the microarray experiment: 064

## 291 (IPESYKDRMYSFF) [compound 291]
[1]; [4]
  antibody binding signal ranking from the microarray experiment: 107

## 174 (SWDWSGHNYI) [compound 174]
[1]; [3]
  antibody binding signal ranking from the microarray experiment: 149

## 287 (IETPDTHISYMP) [compound 287]
[1]; [4]
  antibody binding signal ranking from the microarray experiment: 159

## 305 (NYNIGYQGFY) [compound 305]
[1]; [4]
  antibody binding signal ranking from the microarray experiment: 106

## 216 (TALEINLEEE) [compound 216]
[1]; [4]
  antibody binding signal ranking from the microarray experiment: 09

## 223 (NLEEEDDDNE) [compound 223]
[1]; [4]
  antibody binding signal ranking from the microarray experiment: 27

## 243 (EDDDNED) [compound 243]
[1]; [4]
  antibody binding signal ranking from the microarray experiment: 063

## 242 (DDNEDEVDEQ) [compound 242]
[1]; [4]
  antibody binding signal ranking from the microarray experiment: 057

## 241 (LEEEDDDNEDEVD) [compound 241]
[1]; [4]
  antibody binding signal ranking from the microarray experiment: 053

## 190 (LDPEYWNFRN) [compound 190]
[1]; [3]
  antibody binding signal ranking from the microarray experiment: 155

## 277 (DIETPDTHIS) [compound 277]
[1]; [4]
  antibody binding signal ranking from the microarray experiment: 055

## 278 (EDVDIETPDTHIS) [compound 278]
[1]; [4]
  antibody binding signal ranking from the microarray experiment: 056

## 227 (EVDEQAE) [compound 227]
[1]; [4]
  antibody binding signal ranking from the microarray experiment: 17

## 182 (LNNSFLDPEYWNF) [compound 182]
[1]; [3]
  antibody binding signal ranking from the microarray experiment: 033

## 213 (EINLEEE) [compound 213]
[1]; [4]
  antibody binding signal ranking from the microarray experiment: 06

## 308 (IGYQGFY) [compound 308]
[1]; [4]
  antibody binding signal ranking from the microarray experiment: 136

## 203 (INEIFATSSY) [compound 203]
[1]; [3]
  antibody binding signal ranking from the microarray experiment: 110

## 211 (LEINLEE) [compound 211]
[1]; [4]
  antibody binding signal ranking from the microarray experiment: 04

## 217 (DEAATALEINLEE) [compound 217]
[1]; [4]
  antibody binding signal ranking from the microarray experiment: 11

## 175 (AYSMSFS) [compound 175]
[1]; [3]
  antibody binding signal ranking from the microarray experiment: 167
